Assays:
[1] = system: general motor activity of mice; experiment: General locomotor activity of mice (Stoelting electronic activity monitor); format: in vivo, Balb/c mice
[2] = n-Octanol/water partition coefficient; format: physicochemical; settings: 5 ml n-octanol / 5 ml water, stirring 18 hours
Protocol: A Partition Coefficient was defined by the equation: [formula] representing the amount of the ester taken up per ml of n-octanol relative to the amount of the same compound taken up per ml of water.
The n-octanol/water partition coefficients were obtained from measurements of the distribution of 1, 3, 5 and 6 pmol quantities of each ^14C-labeled compound into a mixture of 5 ml of n-octanol and 5 ml water. At each concentration, the amount of labeled compound in the aqueous and n-octanol phases was calculated from the amount of radioactive material present after stirring for 18 hours.

[3] = Enzymatic hydrolysis of cholesteryl [14C]GABA ester by rat brain homogenate; format: in vitro ADME; settings: 3 mg/ml, 37°C, S1 fractions of rat brain homogenates (0.8 mg/ml of protein)
Description: Cholesterol hydrolases and esterases are present in mammalian brain tissue.

[4] = system: bicuculline-induced epileptic seizures; experiment: Delay of onset of bicuculline-induced seizures (anticonvulsant activity); format: in vivo, mouse; settings: for Onset of seizures: % Saline Control / Survival Time: % Saline Control: 24 hr pretreatment
[5] = 1 hr after administration; TLC
[6] = system: CAI pyramidal cells; format: cell-based, Sprague-Dawley rats
Protocol: Transverse slices of hippocampus (350-375 µm thick) were prepared from Sprague-Dawley rats (200-300 g) and transferred onto a nylon net fixed over a 1.5 ml superfusion chamber. The slices were maintained at 32-33°C in a humidified atmosphere of 95%/5% 02/C02. The standard medium consisted of (in mM): NaCl, 125; KCI, 3.5; CaC12,2; MgS04, 1.5; NaH2PO4, 1; NaHC03, 24; and glucose, 10. Low chloride medium was prepared by substituting sodium isethionate for sodium chloride.
Extracellular potentials were recorded with NaCI-fitted micropipettes, and stimulus pulses were applied through bipolar platinum wire electrodes. The various drugs were dissolved in fresh medium (without glucose and phosphate) and applied to the surface of the tissue by pressure ejection from a micropipette, Sakai, Swartz and Woody, (1979).
The inhibitory effectiveness of various compounds was investigated by measuring their ability to suppress the extracellular population spike recorded from the hippocampal CAI pyramidal layer and elicited by stimulation of stratum radiatum axons. The amplitude of this monosynaptic population spike is essentially proportional to the number of pyramidal cells discharging in response to a stimulus volley, Andersen, Bliss and Skrede, (1971).
The various compounds were applied as droplets to the pyramidal layer approximately 75 µm from the recording electrode. The volume of a single drug application was about 300 picoliters. […] The volume ejected from each pipette was calibrated prior to use by measuring the diameter of the ejected droplet and adjusting the duration of the pressure pulse (usually 100-500 msec) until a standard diameter was reached. A constant droplet volume was used throughout the experiments. Where dose-response information was required, several pipettes with different drug concentrations were used.

[7] = target: GABA "receptors"; experiment: Inhibition of [3H]GABA binding to synaptic membranes from rat cerebellum; settings: [3H]GABA (15 nM); synaptic membrane preparations from rat cerebellum
Protocol: IC50 values were determined by fitting data to linearized transformations, based on including at least two concentrations of antagonists above and below the IC50, with at least triplicate replication per concentration.

[8] = 16 mg/kg, bicuculline 0.3 mg/kg
[9] = 30 mg/kg, bicuculline 0.3 mg/kg
[10] = 84 mg/kg, bicuculline 0.3 mg/kg, mean ± SEM, n ≥ 6

Question: Which “In Vivo Inhibition of General Motor Activity” value ([1]; graded 0-5) does the source give for “(3-Cholesteryl)-gamma-Aminobutyrate [Compound 6]” here?
Answer: 5

Question: And the “activity in the general motor activity test (in words)” value ([1]; i.p., mice)?
Answer: active

Question: And the “i.p. injected dose at which motor activity was reduced by 50%” value ([1]; mice, Fig. 1, n = 6 per dose, 60 min)?
Answer: 17 µmol/kg

Question: What about the “KOW: Octanol/Water Partition Coefficient” value [2] of the same substance?
Answer: 110.

Question: And the “Amount of Unreacted Substrate (6)” value ([3]; 10 min, 40 μl aliquots, TLC)?
Answer: 53.0 ± 7.0 nmol

Question: What about the “Amount of Unreacted Substrate (6)” value ([3]; 30 min) of the same substance?
Answer: 43.5 ± 6.3 nmol

Question: And the “Amount of Unreacted Substrate (6)” value ([3]; 60 min)?
Answer: 34.5 ± 4.9 nmol

Question: And the “Onset of seizures: % Saline Control” value ([4]; 3 mg/kg, bicuculline 0.3 mg/kg)?
Answer: 120 ± 6 % Saline Control

Question: What about the “Survival Time: % Saline Control” value ([4]; 3 mg/kg, bicuculline 0.3 mg/kg) of the same substance?
Answer: 95 ± 15 % Saline Control

Question: What about the “Onset of seizures: % Saline Control” value [4, 8] of the same substance?
Answer: 129 ± 4 % Saline Control

Question: What about the “Survival Time: % Saline Control” value [4, 8] of the same substance?
Answer: 101 ± 20 % Saline Control

Question: And the “Onset of seizures: % Saline Control” value [4, 9]?
Answer: 130 ± 8 % Saline Control

Question: What about the “Survival Time: % Saline Control” value [4, 9] of the same substance?
Answer: 104 ± 18 % Saline Control

Question: And the “Onset of seizures: % Saline Control” value [4, 10]?
Answer: 137 ± 7 % Saline Control

Question: And the “Survival Time: % Saline Control” value [4, 10]?
Answer: 109 ± 9 % Saline Control

Question: What about the “delay of onset of seizures” value ([4]; 24 hr after i.p. injection of 30 mg/kg, bicuculline 0.3 mg/kg) of the same substance?
Answer: 30%

Question: And the “In Vivo Delay of Time of Onset of Bicuculline-induced seizures” value ([4]; graded 0-5)?
Answer: 5

Question: And the “labeled compound present as intact molecules in brain homogenates” value [5]?
Answer: about 70%

Question: What about the “duration of the effect relative to a similar dose of GABA” value [6] of the same substance?
Answer: roughly an order of magnitude longer

Question: And the “effect after incubation of slices in PMSF (0.5 mM) for about 45 min” value [6]?
Answer: significantly reduced

Question: What about the “effect with picrotoxin (10 µM) in the medium or low chloride medium” value [6] of the same substance?
Answer: essentially eliminate the C-G effect

Question: And the “recovery of the population spike amplitude to 90% of the pre-droplet control value” ([6]; after an approximately half-maximal dose)?
Answer: about 14 min

Question: What about the “inhibition of the evoked population spike” value ([6]; droplets applied to the CAI pyramidal layer) of the same substance?
Answer: dose-dependent inhibition

Question: What about the IC50 [7] of the same substance?
Answer: 10 µM
